Measurements reported in patent US11377442B2, “Small molecule agonists and antagonists of NR2F6 activity” (ZANDER THERAPEUTICS, INC., priority 2016, dated 2022).
Where two headings read alike, the source gives them in different places. Values belong to the compound of their own block, whether it stands above or below them.

Key:
Format in all cases: cell-based
[1] = test system: HEK293 pGL4; assay: Firefly_pGL signal, cmpd/DMSO (pGL4 control cells); details: Homo sapiens
[2] = molecular target: T1, NR2F6 LBD (Homo sapiens, UniProt P10588); assay: NR2F6 LBD transient transfection; details: LBD
T1 construct: expressed in transfected cells
T1 sequence (P10588 165-393 limits assumed): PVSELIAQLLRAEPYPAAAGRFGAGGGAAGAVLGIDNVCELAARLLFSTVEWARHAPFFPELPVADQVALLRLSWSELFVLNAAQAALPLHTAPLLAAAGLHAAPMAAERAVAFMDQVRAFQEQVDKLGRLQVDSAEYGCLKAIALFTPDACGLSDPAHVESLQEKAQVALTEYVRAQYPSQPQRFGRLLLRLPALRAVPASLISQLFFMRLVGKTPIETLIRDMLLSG
Method in brief: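 LBD-transfected cells treated at 40, 10, 2 and 0.5 μM (4 replicates); cytotoxicity measured in parallel, normalized to DMSO (0%) and zero signal (100%). Higher concentrations excluded where signal loss reflected toxicity.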

[3] = molecular target: T2, NR2F6 (Homo sapiens, UniProt P10588); assay: NR2F6 agonist screening, Firefly signal cmpd/DMSO
T2 construct: expressed in transfected cells; also transient transfection
T2 sequence (P10588 1-404): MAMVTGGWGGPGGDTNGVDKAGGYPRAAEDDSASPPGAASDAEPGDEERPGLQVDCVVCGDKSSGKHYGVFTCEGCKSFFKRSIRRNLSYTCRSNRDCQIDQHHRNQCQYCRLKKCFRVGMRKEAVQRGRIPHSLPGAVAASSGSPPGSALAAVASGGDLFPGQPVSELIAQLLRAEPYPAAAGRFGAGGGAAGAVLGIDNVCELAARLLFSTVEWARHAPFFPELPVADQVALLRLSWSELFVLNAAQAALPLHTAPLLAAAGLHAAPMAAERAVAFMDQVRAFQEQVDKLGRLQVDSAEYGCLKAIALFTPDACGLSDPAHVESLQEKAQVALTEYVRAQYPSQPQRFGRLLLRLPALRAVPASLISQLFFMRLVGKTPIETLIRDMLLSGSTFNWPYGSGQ

[4] = test system: Renilla; assay: Renilla signal in NR2F6 agonist screening, cmpd/DMSO; details: Renilla, F4
[5] = HEK293, 0.5 uM, pGL4, read-out: Firefly pGL4, cmpd/DMSO (mean)
[6] = HEK293, 2 uM, pGL4, read-out: Firefly pGL4, cmpd/DMSO (mean)
[7] = HEK293, 10 uM, pGL4, read-out: Firefly pGL4, cmpd/DMSO (mean)
[8] = HEK293, 40 uM, pGL4, read-out: Firefly pGL4, cmpd/DMSO (mean)
[9] = HEK293, pGL4, 1% FBS, 0.5 uM, read-out: Firefly, pGL4, 1% FBS, cmpd/DMSO (mean)
[10] = HEK293, pGL4, 1% FBS, 2 uM, read-out: Firefly, pGL4, 1% FBS, cmpd/DMSO (mean)
[11] = HEK293, pGL4, 1% FBS, 10 uM, read-out: Firefly, pGL4, 1% FBS, cmpd/DMSO (mean)
[12] = HEK293, pGL4, 1% FBS, 40 uM, read-out: Firefly, pGL4, 1% FBS, cmpd/DMSO (mean)
[13] = HEK293, pGL4, 10% FBS, 0.5 uM, read-out: Firefly, pGL4, 10% FBS, cmpd/DMSO (mean)
[14] = HEK293, pGL4, 10% FBS, 2 uM, read-out: Firefly, pGL4, 10% FBS, cmpd/DMSO (mean)
[15] = HEK293, pGL4, 10% FBS, 10 uM, read-out: Firefly, pGL4, 10% FBS, cmpd/DMSO (mean)
[16] = HEK293, pGL4, 10% FBS, 40 uM, read-out: Firefly, pGL4, 10% FBS, cmpd/DMSO (mean)
[17] = read-out: Renilla, F4, cmpd/DMSO (mean)
[18] = 1% FBS, read-out: Renilla, F4, 1% FBS, cmpd/DMSO (mean)
[19] = 10% FBS, read-out: Renilla, F4, 10% FBS, cmpd/DMSO (mean)

Firefly LBD, cmpd/DMSO (mean) ([2]; 0.5 uM): 1.0 | Firefly LBD, cmpd/DMSO (mean) ([2]; 2 uM): 1.9 | Firefly LBD, cmpd/DMSO (mean) ([2]; 10 uM): 4.9 | Firefly LBD, cmpd/DMSO (mean) ([2]; 40 uM): 0.4 | Firefly F4, cmpd/DMSO (mean) ([3]; 0.5 uM): 1.8 | Firefly F4, cmpd/DMSO (mean) ([3]; 2 uM): 2.5 | Firefly F4, cmpd/DMSO (mean) ([3]; 10 uM): 7.1 | Firefly F4, cmpd/DMSO (mean) ([3]; 40 uM): 0.7 | F4, Firefly/Renilla for S/B(F4) > 3 ([3]; 1% FBS, 10 uM): 2.7 | Firefly, F4/pGL4 for S/B(F4) > 3 ([3]; 1% FBS, 10 uM): 1.6 | F4, Firefly/Renilla for S/B(F4) > 3 ([3]; 10% FBS, 10 uM): 4.0 | Firefly, F4/pGL4 for S/B(F4) > 3 ([3]; 10% FBS, 10 uM): 2.5 | Firefly, F4, 1% FBS, cmpd/DMSO (mean) ([3]; 1% FBS, 0.5 uM): 1.3 | Firefly, F4, 1% FBS, cmpd/DMSO (mean) ([3]; 1% FBS, 2 uM): 2.1 | Firefly, F4, 1% FBS, cmpd/DMSO (mean) ([3]; 1% FBS, 10 uM): 4.4 | Firefly, F4, 1% FBS, cmpd/DMSO (mean) ([3]; 1% FBS, 40 uM): 0.2 | Firefly, F4, 10% FBS, cmpd/DMSO (mean) ([3]; 10% FBS, 0.5 uM): 1.1 | Firefly, F4, 10% FBS, cmpd/DMSO (mean) ([3]; 10% FBS, 2 uM): 2.0 | Firefly, F4, 10% FBS, cmpd/DMSO (mean) ([3]; 10% FBS, 10 uM): 7.5 | Firefly, F4, 10% FBS, cmpd/DMSO (mean) ([3]; 10% FBS, 40 uM): 0.8 | Activity, cmpd/DMSO ([3]; Table 31): 6.1
Structure (SMILES): O=S1(=O)C[C@H](N2CCCCC2)[C@@H](S(=O)(=O)c2ccc(Cl)cc2)C1 [Compound D123]
fold induction at 0.5 µM [1, 5]: 1.2 | fold induction at 2 µM [1, 6]: 1.7 | fold induction at 10 µM [1, 7]: 3.4 | fold induction at 40 µM [1, 8]: 0.6 | fold induction at 0.5 µM [1, 9]: 1.1 | fold induction at 2 µM [1, 10]: 1.8 | fold induction at 10 µM [1, 11]: 2.7 | fold induction at 40 µM [1, 12]: 0.8 | fold induction at 0.5 µM [1, 13]: 1.2 | fold induction at 2 µM [1, 14]: 1.6 | fold induction at 10 µM [1, 15]: 3 | fold induction at 40 µM [1, 16]: 0.8 | fold induction at 0.5 µM [4, 17]: 1.1 | fold induction at 2 µM [4, 17]: 1.4 | fold induction at 10 µM [4, 17]: 1.9 | fold induction at 40 µM [4, 17]: 0.3 | fold induction at 0.5 µM [4, 18]: 1.1 | fold induction at 2 µM [4, 18]: 1.4 | fold induction at 10 µM [4, 18]: 1.6 | fold induction at 40 µM [4, 18]: 0.1 | fold induction at 0.5 µM [4, 19]: 0.9 | fold induction at 2 µM [4, 19]: 1.1 | fold induction at 10 µM [4, 19]: 1.9 | fold induction at 40 µM [4, 19]: 0.2

Firefly LBD, cmpd/DMSO (mean) ([2]; 0.5 uM): 1.0 | Firefly LBD, cmpd/DMSO (mean) ([2]; 2 uM): 1.5 | Firefly LBD, cmpd/DMSO (mean) ([2]; 10 uM): 3.6 | Firefly LBD, cmpd/DMSO (mean) ([2]; 40 uM): 0.7 | Firefly F4, cmpd/DMSO (mean) ([3]; 0.5 uM): 0.9 | Firefly F4, cmpd/DMSO (mean) ([3]; 2 uM): 1.9 | Firefly F4, cmpd/DMSO (mean) ([3]; 10 uM): 4.9 | Firefly F4, cmpd/DMSO (mean) ([3]; 40 uM): 1.9 | F4, Firefly/Renilla for S/B(F4) > 3 ([3]; 1% FBS, 10 uM): 2.3 | Firefly, F4/pGL4 for S/B(F4) > 3 ([3]; 1% FBS, 10 uM): 1.2 | F4, Firefly/Renilla for S/B(F4) > 3 ([3]; 10% FBS, 10 uM): 2.4 | Firefly, F4/pGL4 for S/B(F4) > 3 ([3]; 10% FBS, 10 uM): 1.4 | F4, Firefly/Renilla for S/B(F4) > 3 ([3]; 10% FBS, 40 uM): 1.3 | Firefly, F4/pGL4 for S/B(F4) > 3 ([3]; 10% FBS, 40 uM): 2.9 | Firefly, F4, 1% FBS, cmpd/DMSO (mean) ([3]; 1% FBS, 0.5 uM): 1.5 | Firefly, F4, 1% FBS, cmpd/DMSO (mean) ([3]; 1% FBS, 2 uM): 1.2 | Firefly, F4, 1% FBS, cmpd/DMSO (mean) ([3]; 1% FBS, 10 uM): 3.9 | Firefly, F4, 1% FBS, cmpd/DMSO (mean) ([3]; 1% FBS, 40 uM): 0.1 | Firefly, F4, 10% FBS, cmpd/DMSO (mean) ([3]; 10% FBS, 0.5 uM): 1.2 | Firefly, F4, 10% FBS, cmpd/DMSO (mean) ([3]; 10% FBS, 2 uM): 1.4 | Firefly, F4, 10% FBS, cmpd/DMSO (mean) ([3]; 10% FBS, 10 uM): 3.3 | Firefly, F4, 10% FBS, cmpd/DMSO (mean) ([3]; 10% FBS, 40 uM): 3.4
Structure (SMILES): CCC(C)N[C@H]1CS(=O)(=O)C[C@@H]1S(=O)(=O)c1ccc(Cl)cc1 (stereo partly shown) [Compound D121]
fold induction at 0.5 µM [1, 5]: 1.4 | fold induction at 2 µM [1, 6]: 1.6 | fold induction at 10 µM [1, 7]: 3.9 | fold induction at 40 µM [1, 8]: 0.7 | fold induction at 0.5 µM [1, 9]: 1.1 | fold induction at 2 µM [1, 10]: 1.1 | fold induction at 10 µM [1, 11]: 3.2 | fold induction at 40 µM [1, 12]: 0.8 | fold induction at 0.5 µM [1, 13]: 1.1 | fold induction at 2 µM [1, 14]: 1.4 | fold induction at 10 µM [1, 15]: 2.4 | fold induction at 40 µM [1, 16]: 1.2 | fold induction at 0.5 µM [4, 17]: 1.2 | fold induction at 2 µM [4, 17]: 1.1 | fold induction at 10 µM [4, 17]: 1.5 | fold induction at 40 µM [4, 17]: 1.7 | fold induction at 0.5 µM [4, 18]: 1.1 | fold induction at 2 µM [4, 18]: 1.4 | fold induction at 10 µM [4, 18]: 1.7 | fold induction at 40 µM [4, 18]: 1.3 | fold induction at 0.5 µM [4, 19]: 1 | fold induction at 2 µM [4, 19]: 1.1 | fold induction at 10 µM [4, 19]: 1.4 | fold induction at 40 µM [4, 19]: 2.6
